PubChem BioAssay AID256 (DTP/NCI, 2004)
Values joined by “and” are separate entries in the source; they are usually repeats but may differ in a detail not shown here. Equal values may be shown once. Inconclusive results and toxic doses are left out. How the source made its calls: active means survival T/C of 150% or more; inactive means T/C below 125% in these data.

Tested on: CD2F1 mice, L1210 leukemia ip, survival T/C
Test: NCI In Vivo Anticancer Drug Screen. Data for tumor model L1210 Leukemia (intraperitoneal) in CD2F1 (CDF1) mice
Conditions: higher = longer survival
Procedure, shortened: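 Implant tumor; dose compound or vehicle; measure endpoint in both groups; report treated divided by control.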

[1] = endpoint: median survival time, dose: 50.0 mg/kg/injection, schedule: Q01DX009 (ip), vehicle: saline
[2] = endpoint: median survival time, dose: 100.0 mg/kg/injection, schedule: Q01DX009 (ip), vehicle: saline
[3] = endpoint: median survival time, dose: 200.0 mg/kg/injection, schedule: Q01DX009 (ip), vehicle: saline
[4] = endpoint: mean survival time, dose: 12.5 mg/kg/injection, schedule: Q01DX005 (ip), vehicle: water
[5] = endpoint: mean survival time, dose: 25.0 mg/kg/injection, schedule: Q01DX005 (ip), vehicle: water
[6] = endpoint: mean survival time, dose: 50.0 mg/kg/injection, schedule: Q01DX005 (ip), vehicle: water
[7] = endpoint: mean survival time, dose: 100.0 mg/kg/injection, schedule: Q01DX005 (ip), vehicle: water
[8] = endpoint: mean survival time, dose: 200.0 mg/kg/injection, schedule: Q01DX005 (ip), vehicle: water
[9] = endpoint: mean survival time, dose: 100.0 mg/kg/injection, schedule: Q01DX001 (ip), vehicle: saline with Tween-80
[10] = endpoint: mean survival time, dose: 400.0 mg/kg/injection, schedule: Q01DX001 (ip), vehicle: saline with Tween-80
[11] = endpoint: mean survival time, dose: 25.0 mg/kg/injection, schedule: Q01DX009 (ip), vehicle: water
[12] = endpoint: mean survival time, dose: 50.0 mg/kg/injection, schedule: Q01DX009 (ip), vehicle: water

Measured: T/C

NC(Cn1ccc(=O)c(O)c1)C(=O)O (stereo not drawn)
inactive: [1] 106 % of control | [2] 107 % of control | [3] 107 % of control | endpoint: median survival time, dose: 400.0 mg/kg/injection, schedule: Q01DX009 (ip), vehicle: saline 114 % of control

O=C1OC(=O)[C@H]2[C@@H]1[C@H]1C=C[C@@H]2OC1=O
inactive: endpoint: median survival time, dose: 12.5 mg/kg/injection, schedule: Q01DX009 (ip), vehicle: saline 98 % of control | endpoint: median survival time, dose: 25.0 mg/kg/injection, schedule: Q01DX009 (ip), vehicle: saline 104 % of control | [1] 104 % of control | [2] 104 % of control | [3] 96 % of control

COC(=O)[C@H]1[C@H]2C[C@@H]3c4[nH]c5cc(OC)ccc5c4CCN3C[C@H]2C[C@@H](OC(=O)c2cc(OC)c(OC)c(OC)c2)[C@@H]1OC
inactive: endpoint: mean survival time, dose: 3.0 mg/kg/injection, schedule: Q01DX009 (ip), vehicle: saline with Tween-80 95 % of control | endpoint: mean survival time, dose: 6.0 mg/kg/injection, schedule: Q01DX009 (ip), vehicle: saline with Tween-80 94 % of control | endpoint: mean survival time, dose: 12.5 mg/kg/injection, schedule: Q04DX003 (ip), vehicle: saline with Tween-80 90 % of control | endpoint: mean survival time, dose: 50.0 mg/kg/injection, schedule: Q04DX003 (ip), vehicle: saline with Tween-80 89 % of control

O=P(Nc1ccccc1)(OCc1ccccc1)N(CCCl)CCCl (stereo not drawn)
inactive: endpoint: mean survival time, dose: 62.5 mg/kg/injection, schedule: Q01DX010 (ip), vehicle: saline 104 % of control | endpoint: mean survival time, dose: 125.0 mg/kg/injection, schedule: Q01DX010 (ip), vehicle: saline 103 % of control | endpoint: mean survival time, dose: 250.0 mg/kg/injection, schedule: Q01DX010 (ip), vehicle: saline 101 % of control

[CH3][Sb]([CH3])([CH3])([Cl])[Cl]
inactive: endpoint: mean survival time, dose: 50.0 mg/kg/injection, schedule: Q04DX003 (ip), vehicle: saline 105 % of control | endpoint: mean survival time, dose: 100.0 mg/kg/injection, schedule: Q04DX003 (ip), vehicle: saline 101 % of control | endpoint: mean survival time, dose: 200.0 mg/kg/injection, schedule: Q04DX003 (ip), vehicle: saline 101 % of control

NC(=O)c1nc(C2OC(CO)C(O)C2O)no1 (stereo not drawn)
inactive: [4] 98 % of control | [5] 98 % of control | [6] 108 % of control | [7] 98 % of control | [8] 98 % of control

CSCS(=O)C[C@H](CO)NC(=O)/C=C/c1c(C)[nH]c(=O)[nH]c1=O (stereo partly drawn)
inactive: endpoint: mean survival time, dose: 0.03 mg/kg/injection, schedule: Q01DX009 (ip), vehicle: saline 104 % of control | endpoint: mean survival time, dose: 0.06 mg/kg/injection, schedule: Q01DX009 (ip), vehicle: saline 103 % of control | endpoint: mean survival time, dose: 0.08 mg/kg/injection, schedule: Q01DX009 (ip), vehicle: water 105 % of control and 110 % of control | endpoint: mean survival time, dose: 0.13 mg/kg/injection, schedule: Q01DX009 (ip), vehicle: saline 101 % of control | endpoint: mean survival time, dose: 0.13 mg/kg/injection, schedule: Q01DX010 (ip), vehicle: saline 102 % of control and 111 % of control | endpoint: mean survival time, dose: 0.15 mg/kg/injection, schedule: Q01DX009 (ip), vehicle: water 115 % of control and 110 % of control | endpoint: mean survival time, dose: 0.25 mg/kg/injection, schedule: Q01DX009 (ip), vehicle: saline 115 % of control | endpoint: mean survival time, dose: 0.25 mg/kg/injection, schedule: Q01DX010 (ip), vehicle: saline 113 % of control and 114 % of control | endpoint: mean survival time, dose: 0.3 mg/kg/injection, schedule: Q01DX009 (ip), vehicle: water 116 % of control | endpoint: mean survival time, dose: 0.5 mg/kg/injection, schedule: Q01DX009 (ip), vehicle: saline 114 % of control | endpoint: mean survival time, dose: 0.5 mg/kg/injection, schedule: Q01DX010 (ip), vehicle: saline 119 % of control and 112 % of control | endpoint: mean survival time, dose: 0.6 mg/kg/injection, schedule: Q01DX009 (ip), vehicle: water 101 % of control | endpoint: mean survival time, dose: 1.0 mg/kg/injection, schedule: Q01DX010 (ip), vehicle: saline 108 % of control

O=[N+]([O-])c1cccc(Cc2nc3ccccc3nc2-c2ccccc2)c1
inactive: [9] 94 % of control | [10] 91 % of control

COc1cc(OC)c(/C=C/c2ccc3ccccc3[n+]2C)c(OC)c1
inactive: endpoint: mean survival time, dose: 0.31 mg/kg/injection, schedule: Q01DX009 (ip), vehicle: saline 103 % of control | endpoint: mean survival time, dose: 0.62 mg/kg/injection, schedule: Q01DX009 (ip), vehicle: saline 114 % of control | endpoint: mean survival time, dose: 1.25 mg/kg/injection, schedule: Q01DX009 (ip), vehicle: saline 121 % of control

CN(C)/C=C(\C#N)C=O
inactive: endpoint: mean survival time, dose: 18.75 mg/kg/injection, schedule: Q01DX009 (ip), vehicle: saline with Tween-80 95 % of control | endpoint: mean survival time, dose: 37.5 mg/kg/injection, schedule: Q01DX009 (ip), vehicle: saline with Tween-80 101 % of control | endpoint: mean survival time, dose: 75.0 mg/kg/injection, schedule: Q01DX009 (ip), vehicle: saline with Tween-80 101 % of control | endpoint: mean survival time, dose: 75.0 mg/kg/injection, schedule: Q04DX003 (ip), vehicle: saline with Tween-80 87 % of control

CC1CCCCCCCCCCC12OCCO2 (stereo not drawn)
inactive: endpoint: mean survival time, dose: 100.0 mg/kg/injection, schedule: Q04DX002 (ip), vehicle: saline with Tween-80 87 % of control | endpoint: mean survival time, dose: 200.0 mg/kg/injection, schedule: Q04DX002 (ip), vehicle: saline with Tween-80 98 % of control | endpoint: mean survival time, dose: 400.0 mg/kg/injection, schedule: Q04DX002 (ip), vehicle: saline with Tween-80 106 % of control

Cn1cnc([N+](=O)[O-])c1[Se]c1nc(N)nc2nc[nH]c12
active: [5] 153 % of control | [11] 160 % of control | endpoint: mean survival time, dose: 37.5 mg/kg/injection, schedule: Q01DX005 (ip), vehicle: water 178 % of control | [12] 151 % of control
inactive: endpoint: mean survival time, dose: 3.12 mg/kg/injection, schedule: Q01DX009 (ip), vehicle: water 111 % of control | endpoint: mean survival time, dose: 6.25 mg/kg/injection, schedule: Q01DX009 (ip), vehicle: water 124 % of control | endpoint: mean survival time, dose: 7.3 mg/kg/injection, schedule: Q01DX005 (ip), vehicle: water 121 % of control

Cc1cc2c(Cl)ncnc2[nH]1
inactive: endpoint: median survival time, dose: 25.0 mg/kg/injection, schedule: Q01DX005 (ip), vehicle: saline 95 % of control | endpoint: median survival time, dose: 50.0 mg/kg/injection, schedule: Q01DX005 (ip), vehicle: saline 90 % of control | endpoint: median survival time, dose: 100.0 mg/kg/injection, schedule: Q01DX005 (ip), vehicle: saline 101 % of control

NS(=O)(=O)c1cccc([N+](=O)[O-])c1
inactive: [9] 95 % of control | endpoint: mean survival time, dose: 200.0 mg/kg/injection, schedule: Q01DX001 (ip), vehicle: saline with Tween-80 92 % of control | [10] 97 % of control

O=C(c1ccccc1)C1CC1c1ccccc1 (stereo not drawn)
inactive: endpoint: mean survival time, dose: 100.0 mg/kg/injection, schedule: Q01DX009 (ip), vehicle: saline 101 % of control | endpoint: mean survival time, dose: 200.0 mg/kg/injection, schedule: Q01DX009 (ip), vehicle: saline 90 % of control | endpoint: mean survival time, dose: 400.0 mg/kg/injection, schedule: Q01DX009 (ip), vehicle: saline 94 % of control

Cc1cccc(SCC(=O)O)c1
inactive: endpoint: mean survival time, dose: 100.0 mg/kg/injection, schedule: Q04DX003 (ip), vehicle: other 96 % of control | endpoint: mean survival time, dose: 200.0 mg/kg/injection, schedule: Q04DX003 (ip), vehicle: other 96 % of control | endpoint: mean survival time, dose: 400.0 mg/kg/injection, schedule: Q04DX003 (ip), vehicle: other 94 % of control

O=C1C2C(C(=O)N1c1ccc(OCc3ccccc3)cc1)C1c3ccccc3C2C2CCCCN21 (stereo not drawn)
inactive: [11] 100 % of control | [12] 86 % of control

O=c1n(C2OC(CO)C(O)C2O)ccc2nnnn12 (stereo not drawn)
inactive: endpoint: mean survival time, dose: 12.5 mg/kg/injection, schedule: Q01DX005 (ip), vehicle: distilled water + Tween-80 100 % of control | endpoint: mean survival time, dose: 25.0 mg/kg/injection, schedule: Q01DX005 (ip), vehicle: distilled water + Tween-80 96 % of control | endpoint: mean survival time, dose: 50.0 mg/kg/injection, schedule: Q01DX005 (ip), vehicle: distilled water + Tween-80 100 % of control | endpoint: mean survival time, dose: 100.0 mg/kg/injection, schedule: Q01DX005 (ip), vehicle: distilled water + Tween-80 96 % of control | endpoint: mean survival time, dose: 200.0 mg/kg/injection, schedule: Q01DX005 (ip), vehicle: distilled water + Tween-80 102 % of control

CCSC(CC(O)C(O)C(O)CO)n1cnc2c(Cl)ncnc21 (stereo not drawn)
inactive: [4] 100 % of control | [5] 105 % of control | [6] 102 % of control | [7] 107 % of control | [8] 104 % of control

OCCCC(Sc1ccccc1)c1ccccc1 (stereo not drawn)
inactive: endpoint: mean survival time, dose: 75.0 mg/kg/injection, schedule: Q04DX003 (ip), vehicle: saline 91 % of control | endpoint: mean survival time, dose: 150.0 mg/kg/injection, schedule: Q04DX003 (ip), vehicle: saline 101 % of control | endpoint: mean survival time, dose: 300.0 mg/kg/injection, schedule: Q04DX003 (ip), vehicle: saline 91 % of control
